Patent publication US20230087118A1, “IMIDAZO[1,2-a][sequence] DERIVATIVES AND THEIR USE IN THE TREATMENT OF DISEASE” (priority 2019, published 2023)
Counter-ions that a name gives are not always drawn.

What follows are compounds tested against T1, IRAK4 (Homo sapiens, UniProt Q9NWZ3) (assay: biochemical). Settings: not given.
T1 sequence (Q9NWZ3 1-460): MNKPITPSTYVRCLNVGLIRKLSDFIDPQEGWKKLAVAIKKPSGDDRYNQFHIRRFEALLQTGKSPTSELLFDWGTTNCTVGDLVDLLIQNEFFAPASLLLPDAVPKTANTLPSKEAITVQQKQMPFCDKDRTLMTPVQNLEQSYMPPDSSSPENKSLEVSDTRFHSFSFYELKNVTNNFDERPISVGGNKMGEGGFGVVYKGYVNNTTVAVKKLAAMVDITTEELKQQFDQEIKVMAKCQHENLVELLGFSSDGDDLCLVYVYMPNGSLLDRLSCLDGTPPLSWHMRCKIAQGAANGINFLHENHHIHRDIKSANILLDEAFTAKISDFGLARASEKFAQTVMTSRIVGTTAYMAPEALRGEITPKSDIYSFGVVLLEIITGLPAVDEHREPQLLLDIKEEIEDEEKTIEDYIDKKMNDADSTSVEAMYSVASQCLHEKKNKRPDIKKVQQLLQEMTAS

Compound	IC50 [µM]
CC12CCC(c3cn4cc(C(=O)Nc5ccn(CC#N)n5)c(OC5CCC5)cc4n3)(CO1)C2 (centres unmarked) [Example 532, N-(1-(cyanomethyl)-1H-pyrazol-3-yl)-7-cyclobutoxy-2-(1-methyl-2-oxabicyclo[2.2.1]heptan-4-yl)imidazo[1,2-a]pyridine-6-carboxamide]	0.0029
CCn1ccc(NC(=O)c2cn3cc(C45CCC(C)(C4)OC5)nc3cc2OC2CCC2)n1 (centres unmarked) [Example 533, 7-Cyclobutoxy-N-(1-ethyl-1H-pyrazol-3-yl)-2-(1-methyl-2-oxabicyclo[2.2.1]heptan-4-yl)imidazo[1,2-a]pyridine-6-carboxamide]	0.0037
CC12CCC(c3cn4cc(C(=O)Nc5ccn(CC6CC6)n5)c(OC5CCC5)cc4n3)(CO1)C2 (centres unmarked) [Example 534, 7-Cyclobutoxy-N-(1-(cyclopropylmethyl)-1H-pyrazol-3-yl)-2-(1-methyl-2-oxabicyclo[2.2.1]heptan-4-yl)imidazo[1,2-a]pyridine-6-carboxamide]	0.0135
CCn1cccc(NC(=O)c2cn3cc(C45CCC(C)(C4)OC5)nc3cc2OC2CCC2)c1=O (centres unmarked) [Example 535, 7-Cyclobutoxy-N-(1-ethyl-2-oxo-1,2-dihydropyridin-3-yl)-2-(1-methyl-2-oxabicyclo[2.2.1]heptan-4-yl)imidazo[1,2-a]pyridine-6-carboxamide]	0.0011
CC12CCC(c3cn4cc(C(=O)Nc5cccnc5OC(F)F)c(OC5CCC5)cc4n3)(CO1)C2 (centres unmarked) [Example 536, 7-Cyclobutoxy-N-(2-(difluoromethoxy)pyridin-3-yl)-2-(1-methyl-2-oxabicyclo[2.2.1]heptan-4-yl)imidazo[1,2-a]pyridine-6-carboxamide]	0.0016
CC12CCC(c3cn4cc(C(=O)Nc5ccn(CCF)n5)c(OC5CCC5)cc4n3)(CO1)C2 (centres unmarked) [Example 537, 7-Cyclobutoxy-N-(1-(2-fluoroethyl)-1H-pyrazol-3-yl)-2-(1-methyl-2-oxabicyclo[2.2.1]heptan-4-yl)imidazo[1,2-a]pyridine-6-carboxamide]	0.0063
CC12CCC(c3cn4cc(C(=O)Nc5cccn(C(F)F)c5=O)c(OC5CCC5)cc4n3)(CO1)C2 (centres unmarked) [Example 538, 7-Cyclobutoxy-N-(1-(difluoromethyl)-2-oxo-1,2-dihydropyridin-3-yl)-2-(1-methyl-2-oxabicyclo[2.2.1]heptan-4-yl)imidazo[1,2-a]pyridine-6-carboxamide]	0.0003
CC(C)Oc1ncccc1NC(=O)c1cn2cc(C34CCC(C)(C3)OC4)nc2cc1OC1CCC1 (centres unmarked) [Example 539, 7-Cyclobutoxy-N-(2-isopropoxypyridin-3-yl)-2-(1-methyl-2-oxabicyclo[2.2.1]heptan-4-yl)imidazo[1,2-a]pyridine-6-carboxamide]	0.0229
CC12CCC(c3cn4cc(C(=O)Nc5cccn6cnnc56)c(OC5CCC5)cc4n3)(CO1)C2 (centres unmarked) [Example 540, N-([1,2,4]triazolo[4,3-a]pyridin-8-yl)-7-cyclobutoxy-2-(1-methyl-2-oxabicyclo[2.2.1]heptan-4-yl)imidazo[1,2-a]pyridine-6-carboxamide]	0.0008
COc1cccc(NC(=O)c2cn3cc(C45CCC(C)(C4)OC5)nc3cc2OC2CCC2)n1 (centres unmarked) [Example 541, 7-Cyclobutoxy-N-(6-methoxypyridin-2-yl)-2-(1-methyl-2-oxabicyclo[2.2.1]heptan-4-yl)imidazo[1,2-a]pyridine-6-carboxamide]	0.0002
Cn1cc(-c2cccc(NC(=O)c3cn4cc(C56CCC(C)(C5)OC6)nc4cc3OC3CCC3)n2)cn1 (centres unmarked) [Example 542, 7-Cyclobutoxy-N-(6-(1-methyl-1H-pyrazol-4-yl)pyridin-2-yl)-2-(1-methyl-2-oxabicyclo[2.2.1]heptan-4-yl)imidazo[1,2-a]pyridine-6-carboxamide]	0.0001
CC12CCC(c3cn4cc(C(=O)Nc5ccn(CC(F)F)n5)c(OC5CCC5)cc4n3)(CO1)C2 (centres unmarked) [Example 543, 7-Cyclobutoxy-N-(1-(2,2-difluoroethyl)-1H-pyrazol-3-yl)-2-(1-methyl-2-oxabicyclo[2.2.1]heptan-4-yl)imidazo[1,2-a]pyridine-6-carboxamide]	0.0044
CC(C)Oc1cc2nc(C34COC(C3)C4)cn2cc1C(=O)Nc1cccc(C(F)F)n1 [Example 544, 2-(2-Oxabicyclo[2.1.1]hexan-4-yl)-N-(6-(difluoromethyl)pyridin-2-yl)-7-isopropoxyimidazo[1,2-a]pyridine-6-carboxamide]	0.0002
COc1ncccc1NC(=O)c1cn2cc(C34COC(C3)C4)nc2cc1OC(C)C [Example 545, 2-(2-Oxabicyclo[2.1.1]hexan-4-yl)-7-isopropoxy-N-(2-methoxypyridin-3-yl)imidazo[1,2-a]pyridine-6-carboxamide]	0.0013
CC(C)Oc1cc2nc(C34COC(C3)C4)cn2cc1C(=O)Nc1ccn(C)n1 [Example 546, 2-(2-Oxabicyclo[2.1.1]hexan-4-yl)-7-isopropoxy-N-(1-methyl-1H-pyrazol-3-yl)imidazo[1,2-a]pyridine-6-carboxamide]	0.0086
Cn1ccc(NC(=O)c2cn3cc(C45CCC(C)(C4)OC5)nc3cc2OC2CCC2)n1 (centres unmarked) [Example 561, 7-Cyclobutoxy-N-(1-methyl-1H-pyrazol-3-yl)-2-(1-methyl-2-oxabicyclo[2.2.1]heptan-4-yl)imidazo[1,2-a]pyridine-6-carboxamide]	0.0014

Next, values leading:

IC50 [µM]	Compound
0.0008	CC(C)Oc1cc2nc(C34COC(C3)C4)cn2cc1C(=O)Nc1cccn(C(F)F)c1=O [Example 547, 2-(2-Oxabicyclo[2.1.1]hexan-4-yl)-N-(1-(difluoromethyl)-2-oxo-1,2-dihydropyridin-3-yl)-7-isopropoxyimidazo[1,2-a]pyridine-6-carboxamide]
0.0034	CC1CC(Oc2cc3nc(C45COC(C)(C4)C5)cn3cc2C(=O)Nc2ccn(C)n2)C1 (centres unmarked) [Example 549]
0.002	Cn1ccc(NC(=O)c2cn3cc(C45COC(C)(C4)C5)nc3cc2OC2CC3(CC3)C2)n1 [Example 550]
0.0019	CC12CC(c3cn4cc(C(=O)Nc5cnn6cccnc56)c(OC5CC5)cc4n3)(CO1)C2 [Example 551]
0.0097	Cn1ccc(NC(=O)c2cn3cc(C45CCC(C)(C4)OC5)nc3cc2OC2CC2)n1 (centres unmarked) [Example 552]
0.0015	CC12CCC(c3cn4cc(C(=O)Nc5cccn(C(F)F)c5=O)c(OC5CC5)cc4n3)(CO1)C2 (centres unmarked) [Example 553]
0.0008	CC12CCC(c3cn4cc(C(=O)Nc5cnn6cccnc56)c(OC5CC5)cc4n3)(CO1)C2 (centres unmarked) [Example 554]
0.0016	Cc1cnc2c(NC(=O)c3cn4cc(C56CCC(C)(C5)OC6)nc4cc3OC3CC3)cnn2c1 (centres unmarked) [Example 555]
0.0005	CC12CCC(c3cn4cc(C(=O)Nc5cnn6cc(F)cnc56)c(OC5CC5)cc4n3)(CO1)C2 (centres unmarked) [Example 556]
0.0011	Cn1cccc(NC(=O)c2cn3cc(C45CCC(C)(C4)OC5)nc3cc2OC2CCCC2)c1=O (centres unmarked) [Example 558]
0.0007	CC[C@H](C)Oc1cc2nc(C34COC(C)(C3)C4)cn2cc1C(=O)Nc1cnn2cc(C)cnc12 [Example 559]
0.0012	CC[C@@H](C)Oc1cc2nc(C34COC(C)(C3)C4)cn2cc1C(=O)Nc1cnn2cc(C)cnc12 [Example 560]
0.0005	CC(C)Oc1nc2nc(C34COC(CF)(C3)C4)cn2cc1C(=O)Nc1cnn2cccnc12 [Example 563, 2-(1-(Fluoromethyl)-2-oxabicyclo[2.1.1]hexan-4-yl)-7-isopropoxy-N-(pyrazolo[1,5-a]pyrimidin-3-yl)imidazo[1,2-a]pyrimidine-6-carboxamide]
0.0003	CC(C)Oc1nc2nc(C34COC(CF)(C3)C4)cn2cc1C(=O)Nc1cccc(C(F)F)n1 [Example 564, N-(6-(difluoromethyl)pyridin-2-yl)-2-(1-(fluoromethyl)-2-oxabicyclo[2.1.1]hexan-4-yl)-7-isopropoxyimidazo[1,2-a]pyrimidine-6-carboxamide]
0.0005	CC(C)Oc1nc2nc(C34CCC(C3)OC4)cn2cc1C(=O)Nc1cnn2cccnc12 (centres unmarked) [Example 565, 2-(2-Oxabicyclo[2.2.1]heptan-4-yl)-7-isopropoxy-N-(pyrazolo[1,5-a]pyrimidin-3-yl)imidazo[1,2-a]pyrimidine-6-carboxamide]
0.0009	CC(C)Oc1nc2nc(C34CCC(C)(CC3)CO4)cn2cc1C(=O)Nc1ccn(C)n1 [Example 566, 7-Isopropoxy-N-(1-methyl-1H-pyrazol-3-yl)-2-(4-methyl-2-oxabicyclo[2.2.2]octan-1-yl)imidazo[1,2-a]pyrimidine-6-carboxamide]
0.0002	Cc1cnc2c(NC(=O)c3cn4cc(C56CCC(C)(CC5)CO6)nc4nc3OC(C)C)cnn2c1 [Example 567, 7-Isopropoxy-2-(4-methyl-2-oxabicyclo[2.2.2]octan-1-yl)-N-(6-methylpyrazolo[1,5-a]pyrimidin-3-yl)imidazo[1,2-a]pyrimidine-6-carboxamide]
0.0002	Cc1cnc2c(NC(=O)c3cn4cc(C56COC(C)(C5)C6)nc4cc3OC3CCCC3)cnn2c1 [Example 568, 7-(Cyclopentyloxy)-2-(1-methyl-2-oxabicyclo[2.1.1]hexan-4-yl)-N-(6-methylpyrazolo[1,5-a]pyrimidin-3-yl)imidazo[1,2-a]pyridine-6-carboxamide]

Same assay, conditions: IRAK4 Biochemical Assay (1 mM ATP, 2 h) IC50 (μM), 1 mM ATP, 2 h, 100 pM IRAK4

IC50 [µM]	Compound
0.0082	COc1cccc(NC(=O)c2cn3cc(C45COC(C)(C4)C5)nc3c(F)c2OC(C)C)n1 [Example 548, 8-Fluoro-7-isopropoxy-N-(6-methoxypyridin-2-yl)-2-(1-methyl-2-oxabicyclo[2.1.1]hexan-4-yl)imidazo[1,2-a]pyridine-6-carboxamide trifluoroacetate]
